This data set in a line: Solid-state stability (HPLC % area after storage). It is filed as physicochemical. As to the method: Various compounds disclosed herein have been placed on long-term solid-state stability protocol. The compounds were stored in glass vials closed with PTFE lined caps at 30° C./65% RH, 40° C./75% RH, 50° C. and 60° C. (ambient humidity). The results of the study after 4 weeks are shown in Table B1 and after 3 months in Table B2. Appearance and purity analysis were conducted using HPLC and XPRD. The HPLC analyses were conducted using standard equipment such as a Agilent HP1100 HPLC (Station ID: LZPES HPLC 04) with YMC-Pack ODS-AQ sub 3 μm, 150×4.6 mm

Counter-ions that a name gives are not always drawn.

As for `Cc1c(CN(C)C(=O)/C=C/c2cnc3c(c2)CCC(=O)N3COP(=O)(O)O)oc2ccccc12` [Compound 10, (E)-6-[(N-methyl-((3-methylbenzofuran-2-yl)methyl)amino)-3-oxoprop-1-en-1-yl)-2-oxo-3,4-dihydro-1,8-naphthyridin-1(2H)-yl]methylphosphate bis-ethanolammonium salt], the “Solid-state stability % Area” value (3 months, 30° C./65% RH) amounted to 98.61 % Area; the “Solid-state stability % Area” value (3 months, 40° C./75% RH) amounted to 92.75 % Area; the “Solid-state stability % Area” value (3 months, 50° C./ambient humidity) is recorded as 99.04 % Area; the “Solid-state stability % Area” value (3 months, Control (ambient lab conditions protected from light)) turned out to be 98.9 % Area; the “Solid-state stability % Area” value (4 weeks, 30° C./65% RH) is given as 98.5 % Area; the “Solid-state stability % Area” value (4 weeks, 40° C./75% RH) stood at 98.2 % Area. The “Solid-state stability % Area” value runs as follows: (4 weeks, 50° C./ambient humidity) 99.3 % Area; (4 weeks, 60° C./ambient humidity) 98.7 % Area; (4 weeks, Control (ambient lab conditions protected from light)) 98.9 % Area. The “physical and chemical stability” value (over 3 months at 30° C./65% RH and 50° C., closed vials, light protected) was “physically and chemically stable”.

The values above are taken from US8901105B2, “Prodrug derivatives of (E)-N-methyl-N-((3-M ethylbenzofuran-2-yl)methyl)-3-(7-oxo-5,6,7,8-tetrahydro-1,8-naphthyridin-3-yl)acrylamide” (Affinium Pharmaceuticals, Inc., priority 2012, dated 2014).
